ChEMBL document CHEMBL4270624, “Synthesis and antibacterial evaluation of 13-substituted cycloberberine derivatives as a novel class of anti-MRSA agents” (Eur J Med Chem, 2018)

Experiments:
Format in all cases: functional
[1] = test system: Staphylococcus aureus; experiment: Antibacterial activity against methicillin-resistant Staphylococcus aureus ATCC 43300 after 18 hrs by agar dilution method; settings: ATCC 43300, 18 h
[2] = test system: Staphylococcus aureus; experiment: Antibacterial activity against methicillin-resistant Staphylococcus aureus ATCC BAA-1708 after 18 hrs by agar dilution method; settings: ATCC BAA-1708, 18 h
[3] = test system: Staphylococcus aureus; experiment: Antibacterial activity against methicillin-resistant Staphylococcus aureus 16-30 clinical isolate after 18 hrs by agar dilution method; settings: 16-30, 18 h
[4] = test system: Staphylococcus aureus; experiment: Antibacterial activity against methicillin-resistant Staphylococcus aureus ATCC BAA-976 after 18 hrs by agar dilution method; settings: ATCC BAA-976, 18 h
[5] = test system: Staphylococcus aureus; experiment: Antibacterial activity against methicillin-resistant Staphylococcus aureus 13-23 clinical isolate after 18 hrs by agar dilution method; settings: 13-23, 18 h
[6] = test system: Staphylococcus aureus; experiment: Antibacterial activity against methicillin-sensitive Staphylococcus aureus 16-1 clinical isolate after 18 hrs by agar dilution method; settings: 16-1, 18 h
[7] = test system: Staphylococcus aureus; experiment: Antibacterial activity against methicillin-resistant Staphylococcus aureus 13-18 clinical isolate after 18 hrs by agar dilution method; settings: 13-18, 18 h
[8] = test system: Staphylococcus aureus; experiment: Antibacterial activity against methicillin-resistant Staphylococcus aureus ATCC 33591 after 18 hrs by agar dilution method; settings: ATCC 33591, 18 h
[9] = test system: Staphylococcus aureus; experiment: Antibacterial activity against methicillin-resistant Staphylococcus aureus 16-34 clinical isolate after 18 hrs by agar dilution method; settings: 16-34, 18 h
[10] = test system: Staphylococcus aureus; experiment: Antibacterial activity against methicillin-sensitive Staphylococcus aureus ATCC 29213 after 18 hrs by agar dilution method; settings: ATCC 29213, 18 h

Row | SMILES | MIC [1] [µg/mL] | MIC [2] [µg/mL] | MIC [3] [µg/mL] | MIC [4] [µg/mL] | MIC [5] [µg/mL] | MIC [6] [µg/mL] | MIC [7] [µg/mL] | MIC [8] [µg/mL] | MIC [9] [µg/mL] | MIC [10] [µg/mL]
1 | COc1ccc2c(c[n+]3c4c2cc(Cc2cccnc2)c2c5c(cc(c24)CC3)OCO5)c1OC.[Br-] | > 64 | 32 | 32 | 16 | 32 | 16 | 32 | 32 | 32 | 16
2 | COC(=O)C(c1ccccc1)c1cc2c3ccc(OC)c(OC)c3c[n+]3c2c2c(cc4c(c12)OCO4)CC3.[Br-] (stereo not given) | > 64 | > 64 | > 64 | > 64 | > 64 | > 64 | > 64 | > 64 | > 64 | > 64
3 | COc1ccc2c(c[n+]3c4c2cc(Cc2ccccc2[N+](=O)[O-])c2c5c(cc(c24)CC3)OCO5)c1OC.[Br-] | 32 | 64 | 8 | 8 | 16 | 8 | 8 | 16 | 8 | 8
4 | COc1ccc2c(c[n+]3c4c2cc(Cc2ccc(C(C)(C)C)cc2)c2c5c(cc(c24)CC3)OCO5)c1OC.[Br-] | 64 | 64 | 64 | 64 | 64 | 32 | 64 | 64 | 64 | 32
5 | COC(=O)c1ccc(Cc2cc3c4ccc(OC)c(OC)c4c[n+]4c3c3c(cc5c(c23)OCO5)CC4)cc1.[Br-] | 64 | 64 | 64 | 32 | 64 | 64 | 32 | 32 | > 64 | 32
6 | COc1ccc2c(c[n+]3c4c2cc(Cc2ccc(Br)cc2)c2c5c(cc(c24)CC3)OCO5)c1OC.[Br-] | 32 | 64 | 16 | 16 | 16 | 16 | 16 | 16 | 16 | 16
7 | COc1ccc2c(c[n+]3c4c2cc(Cc2ccc(C)cc2)c2c5c(cc(c24)CC3)OCO5)c1OC.[Br-] | 4 | 8 | 2 | 2 | 4 | 2 | 4 | 2 | 2 | 2
8 | COc1ccc2c(Cc3ccccc3)c3[n+](cc2c1OC)CCc1cc2c(cc1-3)OCO2.[Br-] | 64 | 32 | 64 | 32 | 32 | 16 | 32 | 64 | 64 | 32
9 | COc1ccc2c(c[n+]3c4c2cc(Cc2cc(C)cc(C)c2)c2c5c(cc(c24)CC3)OCO5)c1OC.[Br-] | 8 | 8 | 4 | 2 | 4 | 4 | 4 | 4 | 4 | 4
10 | COc1ccc2c(c[n+]3c4c2ccc2c5c(cc(c24)CC3)OCO5)c1OC.[Br-] | > 64 | > 64 | > 64 | > 64 | > 64 | > 64 | > 64 | > 64 | > 64 | > 64
11 | COc1ccc2c(c[n+]3c4c2cc(Cc2ccc(C(C)C)cc2)c2c5c(cc(c24)CC3)OCO5)c1OC.[Br-] | 32 | 32 | 16 | 16 | 32 | 8 | 32 | 8 | 16 | 8
12 | COc1ccc2c(c[n+]3c4c2cc(Cc2cc(C(F)(F)F)cc(C(F)(F)F)c2)c2c5c(cc(c24)CC3)OCO5)c1OC.[Br-] | > 64 | > 64 | > 64 | > 64 | > 64 | > 64 | > 64 | > 64 | > 64 | > 64
13 | COc1ccc2c(c[n+]3c4c2cc(Cc2ccncc2)c2c5c(cc(c24)CC3)OCO5)c1OC.[Br-] | 64 | 64 | 64 | 64 | 32 | 64 | 64 | 64 | 64 | 64
14 | COc1ccc2c(c[n+]3c4c2cc(Cc2ccc([N+](=O)[O-])cc2)c2c5c(cc(c24)CC3)OCO5)c1OC.[Br-] | > 64 | > 64 | > 64 | > 64 | > 64 | > 64 | > 64 | > 64 | > 64 | > 64
15 | COc1ccc2c(c[n+]3c4c2cc(Cc2ccc(F)c(C(F)(F)F)c2)c2c5c(cc(c24)CC3)OCO5)c1OC.[Br-] | 32 | 32 | 16 | 32 | 32 | 8 | 16 | 32 | 64 | 32
16 | COc1ccc2c(c[n+]3c4c2cc(Cc2ccc(F)cc2F)c2c5c(cc(c24)CC3)OCO5)c1OC.[Br-] | 8 | 4 | 2 | 4 | 4 | 2 | 4 | 4 | 2 | 4
17 | COc1ccc2c(c[n+]3c4c2cc(Cc2ccc(OC(F)(F)F)cc2)c2c5c(cc(c24)CC3)OCO5)c1OC.[Br-] | 64 | 64 | 64 | 64 | 32 | 64 | 32 | 32 | 64 | 32
18 | COc1ccc2c(c[n+]3c4c2cc(Cc2ccc(F)cc2)c2c5c(cc(c24)CC3)OCO5)c1OC.[Br-] | 4 | 8 | 4 | 4 | 2 | 4 | 4 | 4 | 4 | 4
19 | COc1ccc2c(c[n+]3c4c2cc(Cc2ccccc2)c2c5c(cc(c24)CC3)OCO5)c1OC.[Br-] | 4 | 8 | 4 | 4 | 4 | 4 | 8 | 4 | 4 | 4
20 | COc1ccc2c(c[n+]3c4c2cc(Cc2ccc(Cl)cc2)c2c5c(cc(c24)CC3)OCO5)c1OC.[Br-] | 32 | 32 | 4 | 8 | 8 | 8 | 8 | 8 | 4 | 8
21 | COc1ccc2c(c[n+]3c4c2cc(Cc2cccc(C)c2)c2c5c(cc(c24)CC3)OCO5)c1OC.[Br-] | 4 | 4 | 2 | 2 | 4 | 2 | 4 | 4 | 2 | 2
